Target: T1, CTP synthase 1 (Homo sapiens, UniProt P17812)
T1 sequence (P17812 whole entry): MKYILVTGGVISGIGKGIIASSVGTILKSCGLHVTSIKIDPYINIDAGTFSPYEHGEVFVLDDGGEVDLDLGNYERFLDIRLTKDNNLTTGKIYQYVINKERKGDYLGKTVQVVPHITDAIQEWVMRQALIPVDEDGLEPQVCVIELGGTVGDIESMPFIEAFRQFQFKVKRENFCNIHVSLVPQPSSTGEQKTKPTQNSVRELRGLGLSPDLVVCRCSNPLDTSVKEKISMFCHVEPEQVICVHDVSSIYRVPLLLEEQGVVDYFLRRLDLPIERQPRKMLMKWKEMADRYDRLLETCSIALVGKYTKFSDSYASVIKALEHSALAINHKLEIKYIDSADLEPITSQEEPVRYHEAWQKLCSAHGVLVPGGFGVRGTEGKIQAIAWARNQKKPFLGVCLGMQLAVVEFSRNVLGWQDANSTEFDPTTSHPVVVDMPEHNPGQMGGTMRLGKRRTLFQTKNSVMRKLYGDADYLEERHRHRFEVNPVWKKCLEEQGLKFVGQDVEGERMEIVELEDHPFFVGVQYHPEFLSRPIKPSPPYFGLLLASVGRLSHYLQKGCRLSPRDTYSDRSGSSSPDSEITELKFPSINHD
Test: hCTPS1 Biochemical Assay
Method: Purified human CTPS1 protein was prepared in 1× assay buffer to the final working protein concentration required for the reaction. A 2.5 uL volume per well of human CTPS1 protein was mixed with 0.1 uL per well of test compound dissolved in DMSO and pre-incubated at 25 degrees C. for 10 minutes. 2.5 uL per well of the reaction precursors ATP (UltraPure ATP from ADP-Glo™ kit) and UTP were then added and pre-incubated for an additional 10 minutes at 25 degrees C. Finally, the reaction was initiated by the addition of 5 uL of the reaction precursors L-glutamine and GTP. The final concentration of all reaction components in the assay: ATP (120 uM), UTP (160 uM), GTP (60 uM), L-Glutamine (100 uM), DMSO (1%), hCTPS1 (25 nM). This mixture was incubated for an appropriate amount of time within the determined linear phase of the reaction at 25 degrees C. under sealed plate conditions with constant agitation at 500 revolutions per minute (rpm). ADP-Glo™ reagent was added for 60 minutes (10 uL per well) and subsequently ADP-Glo™ development reagent was added for 60 minutes (20 uL per well) prior to signal detection in a microplate reader (Envision Multilabel Reader, Perkin Elmer). Following each reagent addition over the course of the assay, assay plates were pulse centrifuged for 1 minute at 1000 rpm.

| IC50 | Compound |
| --- | --- |
| < 100 nM | CCOc1cncc(-c2cnc(C(=O)NCc3cccc(NS(=O)(=O)C(F)F)c3)s2)n1 [US12331046, Compound I-61] |
| < 100 nM | CCOc1cncc(-c2ccc(C(=O)NC(C#N)c3cc(NS(=O)(=O)C4CC4)ccn3)cc2)n1 (stereo not given) [US12331046, Compound I-64] |
| < 100 nM | CCOc1cncc(-c2nnc(C(=O)N[C@H](CC)c3cc(NS(=O)(=O)C4CC4)ccn3)s2)n1 [US12331046, Compound I-240] |
| < 100 nM | CCOc1cncc(-c2cnc(C(=O)NCc3cc(F)cc(NS(=O)(=O)C4CC4)c3)s2)n1 [US12331046, Compound I-256] |

| Compound | IC50 |
| --- | --- |
| CCc1c[nH]c2ncc(-c3ccc(C(=O)NCc4cc(NS(=O)(=O)C5CC5)ccn4)cc3)cc12 [US12331046, Compound I-38] | < 100 nM |
